Results from ChEMBL document CHEMBL5465560, “Selectivity Literature for EUbOPEN Chemogenomic Library” (2024).

How the values were obtained:
[1] = molecular target: Ribosomal protein S6 kinase alpha-3 (Homo sapiens, UniProt P51812); experiment: Selectivity interaction (KinomeScan (DiscoverX)) EUB0000229b RPS6KA3; conditions: at 10 µM
[2] = molecular target: Receptor tyrosine-protein kinase erbB-3 (Homo sapiens) (UniProt P21860); experiment: Selectivity interaction (KinomeScan (DiscoverX)) EUB0000229b ERBB3; conditions: at 10 µM
Receptor tyrosine-protein kinase erbB-3 (Homo sapiens), sequence (P21860 whole entry): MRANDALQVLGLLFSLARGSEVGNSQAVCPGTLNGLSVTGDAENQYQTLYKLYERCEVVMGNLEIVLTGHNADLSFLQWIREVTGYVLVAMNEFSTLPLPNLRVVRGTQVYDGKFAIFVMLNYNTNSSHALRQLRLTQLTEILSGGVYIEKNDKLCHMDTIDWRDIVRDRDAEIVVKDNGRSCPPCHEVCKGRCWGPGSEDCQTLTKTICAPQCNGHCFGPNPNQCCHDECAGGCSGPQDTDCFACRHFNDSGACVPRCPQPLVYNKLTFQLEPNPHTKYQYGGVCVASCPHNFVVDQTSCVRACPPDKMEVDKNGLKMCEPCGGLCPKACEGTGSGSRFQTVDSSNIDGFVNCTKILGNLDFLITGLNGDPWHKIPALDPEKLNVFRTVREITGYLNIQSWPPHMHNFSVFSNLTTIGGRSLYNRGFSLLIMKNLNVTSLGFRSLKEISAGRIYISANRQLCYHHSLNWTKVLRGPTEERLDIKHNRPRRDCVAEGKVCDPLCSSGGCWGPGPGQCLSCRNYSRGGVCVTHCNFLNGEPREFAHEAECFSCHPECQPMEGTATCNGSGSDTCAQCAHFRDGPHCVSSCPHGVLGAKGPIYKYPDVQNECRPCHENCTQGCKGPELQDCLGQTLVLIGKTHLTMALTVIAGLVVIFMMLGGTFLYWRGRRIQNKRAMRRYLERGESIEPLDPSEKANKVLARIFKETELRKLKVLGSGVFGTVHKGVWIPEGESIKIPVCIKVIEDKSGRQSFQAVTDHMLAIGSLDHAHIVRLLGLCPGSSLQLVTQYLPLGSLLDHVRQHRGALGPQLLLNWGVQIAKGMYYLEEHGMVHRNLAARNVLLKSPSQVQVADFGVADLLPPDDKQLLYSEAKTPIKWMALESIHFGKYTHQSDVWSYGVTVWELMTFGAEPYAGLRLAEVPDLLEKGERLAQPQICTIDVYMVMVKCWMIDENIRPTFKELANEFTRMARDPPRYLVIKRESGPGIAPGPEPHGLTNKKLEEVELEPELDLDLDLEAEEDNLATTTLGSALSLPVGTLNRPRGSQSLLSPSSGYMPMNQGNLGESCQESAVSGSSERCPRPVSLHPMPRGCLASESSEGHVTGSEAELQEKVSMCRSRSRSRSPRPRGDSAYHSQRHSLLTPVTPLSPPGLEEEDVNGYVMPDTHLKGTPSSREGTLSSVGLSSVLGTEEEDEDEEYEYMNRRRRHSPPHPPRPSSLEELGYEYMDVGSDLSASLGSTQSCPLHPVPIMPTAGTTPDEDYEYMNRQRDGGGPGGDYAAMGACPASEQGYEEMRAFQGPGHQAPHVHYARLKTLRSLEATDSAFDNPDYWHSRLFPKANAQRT

[3] = molecular target: T1, Serine/threonine-protein kinase haspin (Homo sapiens) (UniProt Q8TF76); experiment: Selectivity interaction (KinomeScan (DiscoverX)) EUB0001079a GSG2; conditions: at 1 µM
T1 sequence (whole entry): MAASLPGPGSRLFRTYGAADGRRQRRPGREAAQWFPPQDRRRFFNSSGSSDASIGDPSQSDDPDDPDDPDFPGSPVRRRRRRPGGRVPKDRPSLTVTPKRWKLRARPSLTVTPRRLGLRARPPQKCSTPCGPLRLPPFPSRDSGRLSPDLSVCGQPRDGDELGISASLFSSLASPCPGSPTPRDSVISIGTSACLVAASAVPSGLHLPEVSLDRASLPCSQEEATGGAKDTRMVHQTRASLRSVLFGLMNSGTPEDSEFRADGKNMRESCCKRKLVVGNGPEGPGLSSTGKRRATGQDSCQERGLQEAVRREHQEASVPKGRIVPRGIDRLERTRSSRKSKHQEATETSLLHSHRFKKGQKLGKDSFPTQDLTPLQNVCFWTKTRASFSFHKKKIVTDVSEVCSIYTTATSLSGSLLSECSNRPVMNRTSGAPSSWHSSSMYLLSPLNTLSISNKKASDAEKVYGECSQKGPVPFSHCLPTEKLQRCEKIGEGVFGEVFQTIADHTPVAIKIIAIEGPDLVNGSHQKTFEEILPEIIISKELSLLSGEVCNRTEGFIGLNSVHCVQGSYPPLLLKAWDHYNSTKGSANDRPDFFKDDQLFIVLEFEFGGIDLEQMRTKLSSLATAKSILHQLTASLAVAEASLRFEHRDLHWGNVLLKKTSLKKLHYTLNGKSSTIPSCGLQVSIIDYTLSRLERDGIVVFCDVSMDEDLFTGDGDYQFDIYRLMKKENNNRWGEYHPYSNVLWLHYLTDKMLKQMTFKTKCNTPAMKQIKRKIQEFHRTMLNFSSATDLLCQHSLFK

[4] = molecular target: Serine/threonine-protein kinase PRP4 homolog (Homo sapiens) (UniProt Q13523); experiment: Selectivity interaction (KinomeScan (DiscoverX)) EUB0001079a PRPF4B; conditions: at 1 µM
Serine/threonine-protein kinase PRP4 homolog (Homo sapiens), sequence (Q13523 whole entry): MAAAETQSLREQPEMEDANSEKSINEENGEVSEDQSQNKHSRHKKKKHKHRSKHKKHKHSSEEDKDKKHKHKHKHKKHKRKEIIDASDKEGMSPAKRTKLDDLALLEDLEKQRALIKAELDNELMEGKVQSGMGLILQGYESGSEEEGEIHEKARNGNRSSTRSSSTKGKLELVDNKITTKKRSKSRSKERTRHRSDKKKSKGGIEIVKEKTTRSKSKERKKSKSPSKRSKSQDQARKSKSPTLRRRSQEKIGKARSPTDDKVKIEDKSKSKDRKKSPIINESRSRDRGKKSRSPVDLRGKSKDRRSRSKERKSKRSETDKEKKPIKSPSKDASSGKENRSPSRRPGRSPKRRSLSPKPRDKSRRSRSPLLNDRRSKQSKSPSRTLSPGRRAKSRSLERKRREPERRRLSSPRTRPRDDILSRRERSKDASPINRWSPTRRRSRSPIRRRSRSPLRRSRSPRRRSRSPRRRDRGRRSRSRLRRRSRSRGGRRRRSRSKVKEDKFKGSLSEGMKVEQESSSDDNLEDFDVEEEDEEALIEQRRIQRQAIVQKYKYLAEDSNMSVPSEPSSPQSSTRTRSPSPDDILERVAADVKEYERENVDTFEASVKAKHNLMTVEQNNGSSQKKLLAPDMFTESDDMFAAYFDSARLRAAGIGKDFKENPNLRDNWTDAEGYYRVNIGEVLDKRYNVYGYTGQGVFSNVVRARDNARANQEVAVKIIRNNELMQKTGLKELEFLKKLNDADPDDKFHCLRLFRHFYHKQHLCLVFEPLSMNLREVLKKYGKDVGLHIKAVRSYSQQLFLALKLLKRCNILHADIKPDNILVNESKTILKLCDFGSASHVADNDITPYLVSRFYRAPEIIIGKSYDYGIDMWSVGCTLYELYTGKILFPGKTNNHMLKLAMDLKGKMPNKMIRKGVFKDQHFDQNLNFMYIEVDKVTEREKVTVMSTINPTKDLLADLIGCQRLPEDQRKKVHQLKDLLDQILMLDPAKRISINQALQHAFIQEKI

[5] = system: Tyrosine-protein kinase ABL1 (Homo sapiens), P00519 [T315I]; conditions: at 10 µM
[6] = molecular target: T2, Beta-adrenergic receptor kinase 1 (Homo sapiens) (UniProt P25098); experiment: Selectivity interaction (ProQinase) EUB0000171b ADRBK1
T2 sequence (whole entry): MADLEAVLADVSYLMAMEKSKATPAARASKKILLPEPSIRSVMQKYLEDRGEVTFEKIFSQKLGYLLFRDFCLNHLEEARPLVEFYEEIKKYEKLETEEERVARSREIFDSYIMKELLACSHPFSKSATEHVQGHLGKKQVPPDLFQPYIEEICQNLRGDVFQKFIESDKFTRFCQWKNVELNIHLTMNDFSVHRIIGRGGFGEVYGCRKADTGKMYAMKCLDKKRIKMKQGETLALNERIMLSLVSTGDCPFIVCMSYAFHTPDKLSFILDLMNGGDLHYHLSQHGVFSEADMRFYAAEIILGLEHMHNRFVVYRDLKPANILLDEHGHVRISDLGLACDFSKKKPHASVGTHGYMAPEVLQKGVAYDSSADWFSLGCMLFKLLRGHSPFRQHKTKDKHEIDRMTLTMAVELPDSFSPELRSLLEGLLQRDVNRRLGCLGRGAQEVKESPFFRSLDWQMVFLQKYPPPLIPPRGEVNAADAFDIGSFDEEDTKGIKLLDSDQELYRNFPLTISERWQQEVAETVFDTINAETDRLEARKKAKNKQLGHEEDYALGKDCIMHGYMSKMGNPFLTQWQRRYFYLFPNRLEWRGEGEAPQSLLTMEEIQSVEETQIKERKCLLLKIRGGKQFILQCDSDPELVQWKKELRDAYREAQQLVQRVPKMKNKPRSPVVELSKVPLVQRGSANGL

[7] = molecular target: Mitogen-activated protein kinase 14 (Homo sapiens, UniProt Q16539); experiment: Selectivity interaction (ActivX KiNativ screen (ex vivo kinase selectivity in human PBMCs)) EUB0001619a MAPK14; format: cell-based; conditions: PBMC, at 1 µM
Mitogen-activated protein kinase 14, sequence (Q16539 whole entry): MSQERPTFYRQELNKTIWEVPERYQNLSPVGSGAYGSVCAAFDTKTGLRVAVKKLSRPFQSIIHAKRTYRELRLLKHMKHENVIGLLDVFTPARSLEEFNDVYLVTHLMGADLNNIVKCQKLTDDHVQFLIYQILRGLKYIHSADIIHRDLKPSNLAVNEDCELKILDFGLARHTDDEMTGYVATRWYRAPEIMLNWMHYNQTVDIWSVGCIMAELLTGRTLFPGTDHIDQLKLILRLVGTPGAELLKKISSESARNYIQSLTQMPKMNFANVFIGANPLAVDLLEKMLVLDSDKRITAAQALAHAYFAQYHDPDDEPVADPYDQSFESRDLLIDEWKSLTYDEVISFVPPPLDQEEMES

[8] = molecular target: Dual specificity testis-specific protein kinase 1 (Homo sapiens) (UniProt Q15569); experiment: Selectivity interaction (KinomeScan (DiscoverX)) EUB0001619a TESK1; conditions: at 1 µM
Dual specificity testis-specific protein kinase 1 (Homo sapiens), sequence (Q15569 whole entry, looked up): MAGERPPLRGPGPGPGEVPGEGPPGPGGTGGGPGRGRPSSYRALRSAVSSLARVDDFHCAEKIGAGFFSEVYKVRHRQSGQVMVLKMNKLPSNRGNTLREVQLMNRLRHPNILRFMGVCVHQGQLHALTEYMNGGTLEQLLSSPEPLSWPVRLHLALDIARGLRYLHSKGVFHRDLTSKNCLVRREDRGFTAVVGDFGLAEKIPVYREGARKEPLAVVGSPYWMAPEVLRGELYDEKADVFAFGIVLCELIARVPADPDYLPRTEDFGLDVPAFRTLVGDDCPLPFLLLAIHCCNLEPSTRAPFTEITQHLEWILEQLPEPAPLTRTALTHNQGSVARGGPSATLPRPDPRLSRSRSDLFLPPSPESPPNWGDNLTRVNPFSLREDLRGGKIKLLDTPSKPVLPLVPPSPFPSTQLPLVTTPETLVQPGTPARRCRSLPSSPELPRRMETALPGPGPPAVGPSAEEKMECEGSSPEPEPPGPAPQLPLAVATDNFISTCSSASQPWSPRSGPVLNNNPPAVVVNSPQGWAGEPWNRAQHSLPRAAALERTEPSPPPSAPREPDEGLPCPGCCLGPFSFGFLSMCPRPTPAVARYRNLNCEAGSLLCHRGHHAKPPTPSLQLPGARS

Focal adhesion kinase 1 = Focal adhesion kinase 1 (Homo sapiens, UniProt Q05397); experiment: Selectivity interaction (KinomeScan (DiscoverX)) EUB0000607a PTK2; conditions: at 10 µM
[9] = molecular target: Calcium/calmodulin-dependent protein kinase type II subunit beta (Homo sapiens) (UniProt Q13554); experiment: Selectivity interaction (ActivX KiNativ screen (kinase selectivity in THP-1 cell lysates)) EUB0000639a CAMK2B; format: subcellular; conditions: lysate
Calcium/calmodulin-dependent protein kinase type II subunit beta (Homo sapiens), sequence (Q13554 whole entry): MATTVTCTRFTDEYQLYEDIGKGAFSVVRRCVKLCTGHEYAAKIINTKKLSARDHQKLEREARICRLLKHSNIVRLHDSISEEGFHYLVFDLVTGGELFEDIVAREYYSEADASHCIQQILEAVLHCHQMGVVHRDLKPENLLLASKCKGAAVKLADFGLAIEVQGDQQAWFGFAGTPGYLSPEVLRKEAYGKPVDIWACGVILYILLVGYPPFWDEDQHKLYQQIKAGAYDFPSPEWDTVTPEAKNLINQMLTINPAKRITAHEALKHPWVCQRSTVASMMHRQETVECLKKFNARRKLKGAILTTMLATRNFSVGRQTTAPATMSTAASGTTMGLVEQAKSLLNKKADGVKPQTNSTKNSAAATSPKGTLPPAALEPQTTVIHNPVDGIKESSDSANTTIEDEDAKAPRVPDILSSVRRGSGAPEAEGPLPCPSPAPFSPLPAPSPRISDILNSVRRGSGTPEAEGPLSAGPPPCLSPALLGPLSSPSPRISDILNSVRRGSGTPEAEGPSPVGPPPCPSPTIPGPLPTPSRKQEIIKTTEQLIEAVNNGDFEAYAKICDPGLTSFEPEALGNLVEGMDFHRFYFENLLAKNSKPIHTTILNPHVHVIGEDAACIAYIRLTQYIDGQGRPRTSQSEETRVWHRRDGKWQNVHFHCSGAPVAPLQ

[10] = molecular target: T3, Serine/threonine-protein kinase 3 (Homo sapiens) (UniProt Q13188); experiment: Selectivity interaction (ActivX KiNativ screen (kinase selectivity in THP-1 cell lysates)) EUB0000639a STK3; format: subcellular; conditions: lysate, at 0.04 µM
T3 sequence (whole entry): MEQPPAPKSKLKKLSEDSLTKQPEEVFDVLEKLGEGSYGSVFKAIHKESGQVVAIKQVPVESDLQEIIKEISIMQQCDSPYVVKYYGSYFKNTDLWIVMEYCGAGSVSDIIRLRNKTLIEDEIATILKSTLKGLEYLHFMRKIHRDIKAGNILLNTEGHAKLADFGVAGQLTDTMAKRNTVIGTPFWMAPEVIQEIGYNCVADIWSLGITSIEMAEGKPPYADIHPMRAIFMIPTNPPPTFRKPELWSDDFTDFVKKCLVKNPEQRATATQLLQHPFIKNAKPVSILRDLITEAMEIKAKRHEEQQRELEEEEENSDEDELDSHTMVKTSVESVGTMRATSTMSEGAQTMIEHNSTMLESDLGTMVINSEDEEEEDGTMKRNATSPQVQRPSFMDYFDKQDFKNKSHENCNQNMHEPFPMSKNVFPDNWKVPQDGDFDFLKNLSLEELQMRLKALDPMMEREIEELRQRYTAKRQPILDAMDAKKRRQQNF

Ribosomal protein S6 kinase alpha-3, sequence (P51812 whole entry): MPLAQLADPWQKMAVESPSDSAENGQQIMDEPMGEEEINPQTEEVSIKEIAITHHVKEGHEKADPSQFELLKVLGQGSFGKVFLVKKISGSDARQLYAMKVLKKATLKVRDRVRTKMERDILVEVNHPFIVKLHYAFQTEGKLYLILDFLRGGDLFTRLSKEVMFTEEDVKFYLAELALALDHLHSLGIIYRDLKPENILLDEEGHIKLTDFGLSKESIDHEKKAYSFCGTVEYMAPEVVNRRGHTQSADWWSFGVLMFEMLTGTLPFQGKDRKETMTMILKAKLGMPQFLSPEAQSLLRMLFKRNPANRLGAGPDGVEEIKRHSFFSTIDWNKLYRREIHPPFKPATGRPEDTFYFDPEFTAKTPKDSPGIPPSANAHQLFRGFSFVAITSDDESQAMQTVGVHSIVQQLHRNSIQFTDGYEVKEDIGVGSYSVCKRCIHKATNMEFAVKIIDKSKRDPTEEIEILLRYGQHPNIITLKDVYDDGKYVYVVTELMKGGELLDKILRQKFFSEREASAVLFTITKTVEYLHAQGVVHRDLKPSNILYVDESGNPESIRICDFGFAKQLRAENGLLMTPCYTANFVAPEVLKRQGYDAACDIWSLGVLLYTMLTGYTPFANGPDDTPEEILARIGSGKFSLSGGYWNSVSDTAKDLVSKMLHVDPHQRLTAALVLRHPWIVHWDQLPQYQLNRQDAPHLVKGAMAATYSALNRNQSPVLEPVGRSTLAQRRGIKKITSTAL

COc1cc(N(C)c2ccnc3ccc(C(F)(F)F)cc23)cc(OC)c1OC
% binding [1]: 95%
% binding [2]: 93%

Nc1cnc(N2CCc3cc(S(=O)(=O)Nc4c(F)cc(Cl)cc4F)cc(N4CCCC4=O)c32)nc1 [TP-020n]
% of control [3]: 100%
% of control [4]: 76%

Cc1cc([C@@H](C)Nc2ccccc2C(=O)O)c2nc(N3CCOCC3)cc(=O)n2c1 [AZD-6482]
% of control [5]: 100%

C=CC(=O)Nc1cccc(C(=O)Nc2ccc(Nc3cc(-c4[nH]c(SC)nc4C)ccn3)cc2)c1
% of control ([6]; at 1 µM): 101%
% of control ([6]; at 5 µM): 88%

N#Cc1cccc(-c2c[nH]c3ncnc(N4CCOCC4)c23)c1
% of inhibition [7]: -15%
% of control [8]: 100%

CNC(=O)Nc1ccc(-c2nc(N3CC4CCC(C3)O4)c3cnn(C4CCC5(CC4)OCCO5)c3n2)cc1
% of control (Focal adhesion kinase 1): 78%

CC[C@@H]1[C@H](F)C(=O)N[C@@H]1COc1nccc2cc(C(N)=O)c(OC)cc12 [ZIMLOVISERTIB]
% of inhibition ([9]; at 0.01 µM): 3.3%
% of inhibition ([9]; at 0.04 µM): 16.7%
% of inhibition ([9]; at 0.2 µM): 6.9%
% of inhibition ([9]; at 1 µM): 25.1%
% of inhibition ([9]; at 5 µM): 56.2%
% of inhibition [10]: 2.2%
